Molecular target: human GluN1/GluN2B NMDA receptors (Homo sapiens, UniProt Q05586+Q13224)
Assay: Cell-based calcium flux (FLIPR) assay on cloned human NR1/NR2B ion channels expressed in mammalian cells
Conditions: standard assay; glutamate at ~EC80; FLIPR calcium flux
Outline: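 Calcium influx followed by FLIPR fluorescence after 5 min compound exposure and a further 5 min co-agonist challenge: 10 μM glycine with glutamate at ~EC80 (standard) or EC40 (HTS).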

Sequence of human GluN1/GluN2B NMDA receptors (Q13224 27-1484, other chains not shown): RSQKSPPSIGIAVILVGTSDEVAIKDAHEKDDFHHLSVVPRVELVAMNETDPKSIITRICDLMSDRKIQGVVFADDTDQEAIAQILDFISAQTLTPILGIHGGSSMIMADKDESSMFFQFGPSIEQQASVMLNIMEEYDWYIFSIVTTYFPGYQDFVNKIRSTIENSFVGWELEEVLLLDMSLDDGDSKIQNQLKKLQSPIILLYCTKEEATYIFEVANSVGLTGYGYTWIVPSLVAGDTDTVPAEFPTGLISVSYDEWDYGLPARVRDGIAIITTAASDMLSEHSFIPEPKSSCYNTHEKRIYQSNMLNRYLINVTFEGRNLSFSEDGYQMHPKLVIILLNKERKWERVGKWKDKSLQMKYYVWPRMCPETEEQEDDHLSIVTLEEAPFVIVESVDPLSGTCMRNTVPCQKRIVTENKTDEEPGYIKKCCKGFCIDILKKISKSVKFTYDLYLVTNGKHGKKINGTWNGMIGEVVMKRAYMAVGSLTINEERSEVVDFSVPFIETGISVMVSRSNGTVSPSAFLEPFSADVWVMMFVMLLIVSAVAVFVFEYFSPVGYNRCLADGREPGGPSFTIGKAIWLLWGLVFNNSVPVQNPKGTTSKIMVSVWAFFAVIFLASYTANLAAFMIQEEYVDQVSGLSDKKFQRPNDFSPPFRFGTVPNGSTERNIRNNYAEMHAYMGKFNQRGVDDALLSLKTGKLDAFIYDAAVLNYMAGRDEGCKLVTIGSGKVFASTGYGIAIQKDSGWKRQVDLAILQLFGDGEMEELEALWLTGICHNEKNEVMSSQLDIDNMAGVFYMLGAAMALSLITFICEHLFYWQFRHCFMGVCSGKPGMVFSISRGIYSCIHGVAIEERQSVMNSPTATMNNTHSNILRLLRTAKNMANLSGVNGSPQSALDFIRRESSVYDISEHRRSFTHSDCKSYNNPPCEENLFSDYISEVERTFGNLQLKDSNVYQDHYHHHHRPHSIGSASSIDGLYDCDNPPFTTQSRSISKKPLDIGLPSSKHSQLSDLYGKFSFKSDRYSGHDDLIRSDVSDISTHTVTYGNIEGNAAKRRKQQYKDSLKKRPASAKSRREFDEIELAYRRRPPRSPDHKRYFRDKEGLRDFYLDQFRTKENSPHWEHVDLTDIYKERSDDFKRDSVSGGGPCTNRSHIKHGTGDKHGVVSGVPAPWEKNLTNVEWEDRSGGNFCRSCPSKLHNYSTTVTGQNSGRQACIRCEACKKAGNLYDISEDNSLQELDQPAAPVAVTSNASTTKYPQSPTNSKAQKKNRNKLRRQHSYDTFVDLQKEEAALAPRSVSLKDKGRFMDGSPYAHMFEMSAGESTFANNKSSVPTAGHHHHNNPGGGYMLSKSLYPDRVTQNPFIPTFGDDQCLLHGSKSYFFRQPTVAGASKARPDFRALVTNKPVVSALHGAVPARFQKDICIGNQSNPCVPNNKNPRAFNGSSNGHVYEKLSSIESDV

SMILES | IC50 [µM]
Cc1ccc(OCc2cn(-c3ccc(F)c(C(F)(F)F)c3)nn2)nc1 [Example 431, 2-[[1-[4-Fluoro-3-(trifluoromethyl)phenyl]triazol-4-yl]methoxy]-5-methyl-pyridine] | 0.101
Fc1ccc(-n2cc(COc3ccc(C(F)(F)F)cn3)nn2)cc1C(F)(F)F [Example 432, 2-[[1-[4-Fluoro-3-(trifluoromethyl)phenyl]triazol-4-yl]methoxy]-5-(trifluoromethyl)pyridine] | 0.528
CC(C)(O)c1ccc(OCc2cn(-c3ccc(F)c(C(F)(F)F)c3)nn2)nc1 [Example 433, 2-[6-[[1-[4-Fluoro-3-(trifluoromethyl)phenyl]triazol-4-yl]methoxy]-3-pyridyl]propan-2-ol] | 1.11
Fc1ccc(-n2cc(COc3cnccn3)nn2)cc1C(F)(F)F [Example 434, 2-[[1-[4-Fluoro-3-(trifluoromethyl)phenyl]triazol-4-yl]methoxy]pyrazine] | 6.39
CC(C)(O)c1cnc(OCc2cn(-c3ccc(F)c(C(F)(F)F)c3)nn2)nc1 [Example 435, 2-[2-[[1-[4-Fluoro-3-(trifluoromethyl)phenyl]triazol-4-yl]methoxy]pyrimidin-5-yl]propan-2-ol] | 0.098
COC(C)(C)c1cnc(OCc2cn(-c3ccc(F)c(C(F)(F)F)c3)nn2)nc1 [Example 436, 2-[[1-[4-Fluoro-3-(trifluoromethyl)phenyl]triazol-4-yl]methoxy]-5-(1-methoxy-1-methyl-ethyl)pyrimidine] | 3.26
COCc1cnc(OCc2cn(-c3ccc(F)c(C(F)(F)F)c3)nn2)nc1 [Example 437, 2-[[1-[4-Fluoro-3-(trifluoromethyl)phenyl]triazol-4-yl]methoxy]-5-(methoxymethyl)pyrimidine] | 0.071
COCc1ccnc(OCc2cn(-c3ccc(F)c(C(F)(F)F)c3)nn2)n1 [Example 438, 2-[[1-[4-Fluoro-3-(trifluoromethyl)phenyl]triazol-4-yl]methoxy]-4-(methoxymethyl)pyrimidine] | 0.094
Fc1ccc(-n2cc(COc3ncc(C(F)F)cn3)nn2)cc1C(F)(F)F [Example 439, 5-(Difluoromethyl)-2-[[1-[4-fluoro-3-(trifluoromethyl)phenyl]triazol-4-yl]methoxy]pyrimidine] | 0.013
Fc1ccc(-n2cc(COc3nccc(C(F)F)n3)nn2)cc1C(F)(F)F [Example 440, 4-(Difluoromethyl)-2-[[1-[4-fluoro-3-(trifluoromethyl)phenyl]triazol-4-yl]methoxy]pyrimidine] | 0.098
COc1ccnc(OCc2cn(-c3ccc(F)c(C(F)(F)F)c3)nn2)n1 [Example 442, 2-[[1-[4-Fluoro-3-(trifluoromethyl)phenyl]triazol-4-yl]methoxy]-4-methoxy-pyrimidine] | 0.072
CCOc1cnc(OCc2cn(-c3ccc(F)c(C(F)(F)F)c3)nn2)nc1 [Example 443, 5-Ethoxy-2-[[1-[4-fluoro-3-(trifluoromethyl)phenyl]triazol-4-yl]methoxy]pyrimidine] | 0.004
Cc1nc(OCc2cn(-c3ccc(F)c(C(F)(F)F)c3)nn2)ncc1Cl [Example 444, 5-Chloro-2-[[1-[4-fluoro-3-(trifluoromethyl)phenyl]triazol-4-yl]methoxy]-4-methyl-pyrimidine] | 0.013
Cc1nc(OCc2cn(-c3ccc(F)c(C(F)(F)F)c3)nn2)ncc1F [Example 445, 5-Fluoro-2-[[1-[4-fluoro-3-(trifluoromethyl)phenyl]triazol-4-yl]methoxy]-4-methyl-pyrimidine] | 0.006
CC(=O)c1cnc(OCc2cn(-c3ccc(F)c(C(F)(F)F)c3)nn2)nc1 [Example 447, 1-[2-[[1-[4-Fluoro-3-(trifluoromethyl)phenyl]triazol-4-yl]methoxy]pyrimidin-5-yl]ethanone] | 0.014
CNc1ccnc(OCc2cn(-c3ccc(F)c(C(F)(F)F)c3)nn2)n1 [Example 449, 2-[[1-[4-Fluoro-3-(trifluoromethyl)phenyl]triazol-4-yl]methoxy]-N-methyl-pyrimidin-4-amine] | 0.034
CN(C)c1ccnc(OCc2cn(-c3ccc(F)c(C(F)(F)F)c3)nn2)n1 [Example 450, 2-[[1-[4-Fluoro-3-(trifluoromethyl)phenyl]triazol-4-yl]methoxy]-N,N-dimethyl-pyrimidin-4-amine] | 0.03
CNc1nc(OCc2cn(-c3ccc(F)c(C(F)(F)F)c3)nn2)ncc1F [Example 451, 5-Fluoro-2-[[1-[4-fluoro-3-(trifluoromethyl)phenyl]triazol-4-yl]methoxy]-N-methyl-pyrimidin-4-amine] | 0.298
CNC(=O)c1cnc(OCc2cn(-c3ccc(F)c(C(F)(F)F)c3)nn2)nc1 [Example 452, 2-[[1-[4-Fluoro-3-(trifluoromethyl)phenyl]triazol-4-yl]methoxy]-N-methyl-pyrimidine-5-carboxamide] | 0.218
Fc1ccc(-n2cc(COc3ncc(C4CC4)cn3)nn2)cc1C(F)(F)F [Example 453, 5-Cyclopropyl-2-[[1-[4-fluoro-3-(trifluoromethyl)phenyl]triazol-4-yl]methoxy]pyrimidine] | 0.022
Fc1ccc(-n2cc(COc3ncc(Br)cn3)nn2)cc1C(F)(F)F [Example 454, 5-Bromo-2-((1-(4-fluoro-3-(trifluoromethyl)phenyl)-1H-1,2,3-triazol-4-yl)methoxy)pyrimidine] | 0.013
Fc1ccc(-n2cc(COc3ncc(N4CC(F)C4)cn3)nn2)cc1C(F)(F)F [Example 455, 2-((1-(4-Fluoro-3-(trifluoromethyl)phenyl)-1H-1,2,3-triazol-4-yl)methoxy)-5-(3-fluoroazetidin-1-yl)pyrimidine] | 0.034
Fc1ccc(-n2cc(COc3ncc(N4CCOCC4)cn3)nn2)cc1C(F)(F)F [Example 456, 4-(2-((1-(4-Fluoro-3-(trifluoromethyl)phenyl)-1H-1,2,3-triazol-4-yl)methoxy)pyrimidin-5-yl)morpholine] | 0.5
Cc1nc(OCc2cn(-c3ccc(F)c(C(F)(F)F)c3)nn2)ncc1N1CCC1 [Example 457, 5-(Azetidin-1-yl)-2-((1-(3-(trifluoromethyl)-4-fluorophenyl)-1H-1,2,3-triazol-4-yl)methoxy)-4-methylpyrimidine] | 0.296
CCNc1cnc(OCc2cn(-c3ccc(F)c(C(F)(F)F)c3)nn2)nc1C [Example 458, 2-((1-(3-(Trifluoromethyl)-4-fluorophenyl)-1H-1,2,3-triazol-4-yl)methoxy)-N-ethyl-4-methylpyrimidin-5-amine] | 0.439
CCNc1cnc(OCc2cn(-c3ccc(F)c(C(F)(F)F)c3)nn2)nc1 [Example 459, 2-((1-(3-(Trifluoromethyl)-4-fluorophenyl)-1H-1,2,3-triazol-4-yl)methoxy)-N-ethylpyrimidin-5-amine] | 0.126
COC1CN(c2cnc(OCc3cn(-c4ccc(F)c(C(F)(F)F)c4)nn3)nc2)C1 [Example 460, 2-((1-(3-(Trifluoromethyl)-4-fluorophenyl)-1H-1,2,3-triazol-4-yl)methoxy)-5-(3-methoxyazetidin-1-yl)pyrimidine] | 0.726
Fc1c(-n2cc(COc3ncc(Cl)cn3)nn2)cccc1C(F)(F)F [Example 461, 5-Chloro-2-[[1-[2-fluoro-3-(trifluoromethyl)phenyl]triazol-4-yl]methoxy]pyrimidine] | 0.07

From patent US10233173B2, “Substituted 1,2,3-triazoles as NR2B-selective NMDA modulators” (JANSSEN PHARMACEUTICA NV, priority 2016, dated 2019)
